ChEMBL document CHEMBL4765275, “Discovery of novel tertiary amide derivatives as NEDDylation pathway activators to inhibit the tumor progression in vitro and in vivo” (Eur J Med Chem, 2020)
Calls of active or inactive are those of the source. The rule behind the calls is not given here.

Columns and labels:
MGC-803 [1] = test: Cell cycle arrest in human MGC-803 cells assessed as accumulation at S phase at 100 nmol/L measured after 48 hrs by propidium iodide staining based flow cytometry (reference value: 34.48%); assay type: functional
[2] = target: T1, NEDD8-activating enzyme E1 regulatory subunit (Homo sapiens) (UniProt Q13564); test: Activation of NAE1-mediated neddylation in human MGC-803 cells assessed as increase in Nedd8-[…] adduct formation at 50 to 500 nmol/L measured after 30 mins in presence of ATP by Western blot analysis; assay type: cell-based; details: filed as activator, dose 50-500 nmol/L
T1 sequence (whole entry): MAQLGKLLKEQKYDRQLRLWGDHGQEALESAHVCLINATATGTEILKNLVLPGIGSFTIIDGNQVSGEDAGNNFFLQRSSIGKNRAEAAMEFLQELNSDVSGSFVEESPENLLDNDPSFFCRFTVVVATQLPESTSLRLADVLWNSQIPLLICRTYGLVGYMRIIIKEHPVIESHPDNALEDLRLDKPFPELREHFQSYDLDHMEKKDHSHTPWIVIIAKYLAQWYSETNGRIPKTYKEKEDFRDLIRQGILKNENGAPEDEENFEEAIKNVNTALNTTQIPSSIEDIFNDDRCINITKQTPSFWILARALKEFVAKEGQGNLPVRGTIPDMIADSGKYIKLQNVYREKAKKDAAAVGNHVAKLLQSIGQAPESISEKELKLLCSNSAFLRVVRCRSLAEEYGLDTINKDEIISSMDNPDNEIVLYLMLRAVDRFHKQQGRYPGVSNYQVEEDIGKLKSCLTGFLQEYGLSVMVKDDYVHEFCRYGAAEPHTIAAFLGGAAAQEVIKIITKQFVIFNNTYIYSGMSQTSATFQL

MGC-803 [3] = test: Induction of apoptosis in human MGC-803 cells assessed as down regulation of c-IAP1 expression at 50 to 150 nmol/L measured after 48 hrs by Western blot analysis; assay type: functional, cell-based; details: dose 50-150 nmol/L
MGC-803 [4] = test: Antiproliferative activity against human MGC-803 cells measured after 48 hrs by MTT assay; assay type: functional, cell-based
MGC-803 [5] = test: Toxicity in human MGC-803 cells xenografted mouse assessed as change in body weight at 50 to 150 mg/kg, sc measured after 28 days; assay type: organism-based; details: in vivo, 672 h, dose 50-150 mg/kg, time 28 day
MGC-803 [6] = test: Induction of apoptosis in human MGC-803 cells assessed as upregulation of Bad expression at 50 to 150 nmol/L measured after 48 hrs by Western blot analysis; assay type: functional, cell-based; details: dose 50-150 nmol/L
MGC-803 [7] = test: Induction of morphological changes in human MGC-803 cells assessed as cell rounding at 50 to 150 nmol/L measured after 48 hrs by bright field microscopic analysis; assay type: functional, cell-based; details: dose 50-150 nmol/L
MGC-803 [8] = test: Cell cycle arrest in human MGC-803 cells assessed as accumulation at G2 phase at 100 nmol/L measured after 48 hrs by propidium iodide staining based flow cytometry (reference value: 24.91%); assay type: functional
MGC-803 [9] = test: Cell cycle arrest in human MGC-803 cells assessed as accumulation at G1 phase at 150 nmol/L measured after 48 hrs by propidium iodide staining based flow cytometry (reference value: 40.61%); assay type: functional
MGC-803 [10] = test: Cell cycle arrest in human MGC-803 cells assessed as accumulation at S phase at 150 nmol/L measured after 48 hrs by propidium iodide staining based flow cytometry (reference value: 34.48%); assay type: functional
MGC-803 [11] = test: Cell cycle arrest in human MGC-803 cells assessed as accumulation at G2 phase at 150 nmol/L measured after 48 hrs by propidium iodide staining based flow cytometry (reference value: 24.91%); assay type: functional
MGC-803 [12] = test: Induction of apoptosis in human MGC-803 cells assessed as increase in activated caspase-8 expression at 50 to 150 nmol/L measured after 48 hrs by Western blot analysis; assay type: functional, cell-based; details: dose 50-150 nmol/L
MGC-803 [13] = test: Induction of apoptosis in human MGC-803 cells assessed as increase in cleaved PARP expression at 50 to 150 nmol/L measured after 48 hrs by Western blot analysis; assay type: functional, cell-based; details: dose 50-150 nmol/L
MGC-803 [14] = test: Antitumor activity against human MGC-803 cells xenografted in mouse assessed as reduction in tumor weight at 150 mg/kg, sc measured after 28 days relative to control; assay type: functional; design: scale not given: the % may be the effect or the level left; details: time 28 day
MGC-803 [15] = test: Antitumor activity against human MGC-803 cells xenografted in mouse assessed as reduction in tumor weight at 50 mg/kg, sc measured after 28 days relative to control; assay type: functional; design: scale not given: the % may be the effect or the level left; details: time 28 day
[16] = target: T1, NEDD8-activating enzyme E1 regulatory subunit (Homo sapiens); test: Activation of NAE1-mediated neddylation in human MGC-803 cells assessed as increase in Nedd8 neddylation at 50 to 150 nmol/L measured after 24 hrs by Western blot analysis; assay type: cell-based; details: filed as activator, dose 50-150 nmol/L
MGC-803 [17] = test: Induction of apoptosis in human MGC-803 cells assessed as late apoptotic cells at 150 nmol/L measured after 48 hrs by Annexin V-FITC/propidium iodide staining based flow cytometry (reference value: 5.6%); assay type: functional
MGC-803 [18] = test: Induction of apoptosis in human MGC-803 cells assessed as necrotic cells at 75 nmol/L measured after 48 hrs by Annexin V-FITC/propidium iodide staining based flow cytometry (reference value: 0.5%); assay type: functional
MGC-803 [19] = test: Induction of apoptosis in human MGC-803 cells assessed as early apoptotic cells at 150 nmol/L measured after 48 hrs by Annexin V-FITC/propidium iodide staining based flow cytometry (reference value: 2.2%); assay type: functional
MGC-803 [20] = test: Cell cycle arrest in human MGC-803 cells assessed as accumulation at G2 phase at 50 nmol/L measured after 48 hrs by propidium iodide staining based flow cytometry (reference value: 24.91%); assay type: functional
MGC-803 [21] = test: Induction of apoptosis in human MGC-803 cells assessed as increase in activated caspase-2 expression at 50 to 150 nmol/L measured after 48 hrs by Western blot analysis; assay type: functional, cell-based; details: dose 50-150 nmol/L
MGC-803 [22] = test: Induction of apoptosis in human MGC-803 cells assessed as necrotic cells at 100 nmol/L measured after 48 hrs by Annexin V-FITC/propidium iodide staining based flow cytometry (reference value: 0.5%); assay type: functional
PC-3 = test: Antiproliferative activity against human PC-3 cells measured after 48 hrs by MTT assay; assay type: functional, cell-based; details: PC-3, 48 h
MGC-803 [23] = test: Induction of apoptosis in human MGC-803 cells assessed as early apoptotic cells at 50 nmol/L measured after 48 hrs by Annexin V-FITC/propidium iodide staining based flow cytometry (reference value: 2.2%); assay type: functional
[24] = target: T1, NEDD8-activating enzyme E1 regulatory subunit (Homo sapiens); test: Activation of NAE1-mediated neddylation in human MGC-803 cells assessed as increase in Nedd8-[…] adduct formation at 50 to 150 nmol/L measured after 24 hrs by Western blot analysis; assay type: cell-based; details: filed as activator, dose 50-150 nmol/L
MGC-803 [25] = test: Induction of apoptosis in human MGC-803 cells assessed as late apoptotic cells at 75 nmol/L measured after 48 hrs by Annexin V-FITC/propidium iodide staining based flow cytometry (reference value: 5.6%); assay type: functional
MGC-803 [26] = test: Cell cycle arrest in human MGC-803 cells assessed as accumulation at G1 phase at 50 nmol/L measured after 48 hrs by propidium iodide staining based flow cytometry (reference value: 40.61%); assay type: functional
MGC-803 [27] = test: Induction of apoptosis in human MGC-803 cells assessed as early apoptotic cells at 75 nmol/L measured after 48 hrs by Annexin V-FITC/propidium iodide staining based flow cytometry (reference value: 2.2%); assay type: functional

COc1ccc(CN(C(=O)Cc2cccs2)c2cc(OC)c(OC)c(OC)c2)cc1
Activity (MGC-803 [1]): 21.52%
Activity [2]: Active
Activity (MGC-803 [3]): Active
Activity (MGC-803 [4]): Dose-dependent effect
IC50 (MGC-803 [4]; MGC-803, 48 h): 90 nM
Activity (MGC-803 [5]): Non-Toxic
Activity (MGC-803 [6]): Active
Activity (MGC-803 [7]): Active
Activity (MGC-803 [8]): 36.03%
Activity (MGC-803 [9]): 13.31%
Activity (MGC-803 [10]): 16.21%
Activity (MGC-803 [11]): 52.97%
Activity (MGC-803 [12]): Active
Activity (MGC-803 [13]): Active
Activity (MGC-803 [14]): 46%
Activity (MGC-803 [15]): 36%
Activity [16]: Active
Activity (MGC-803 [17]): 47.6%
Activity (MGC-803 [18]): 2%
Activity (MGC-803 [19]): 39.9%
Activity (MGC-803 [20]): 35.12%
Activity (MGC-803 [21]): Active
Activity (MGC-803 [22]): 2.5%
IC50 (PC-3): 1150 nM
Activity (MGC-803 [23]): 5.2%
Activity [24]: Active
Activity (MGC-803 [25]): 11%
Activity (MGC-803 [26]): 37.2%
Activity (MGC-803 [27]): 12.6%
